Earlier results on one compound are cited in patent US12678435B2, “Prevention and/or treatment of contrast-induced acute kidney injury” (Saghmos Therapeutics Inc., priority 2016, dated 2026).

This data set concerns patients with high serum creatinine levels undergoing coronary angiography/angioplasty. To be noted: four Phase 2 clinical trials; compared with isotonic saline; published in Onbasili 2007, Rahman 2012, Shehata 2014, Liu 2015.

In the case of `COc1ccc(CN2CCNCC2)c(OC)c1OC` [Trimetazidine], the “reducing the risk of contrast-induced nephropathy (CIN)” value is recorded as “more effective than isotonic saline in reducing the risk of contrast-induced nephropathy (CIN)”.
